Common to all, as to assay: Two-electrode voltage-clamp concentration-activation by the natural agonist, receptor expressed in Xenopus oocytes
Holding throughout (type): cell-based
What all share (parameters): The corresponding open reading frames (ORF) were cloned into the pT7-TS transcription vector; expressed in transfected cells; host or cells: Xenopus laevis oocytes, cRNA injection
What all share (conditions): concentration-activation curve

In assay [1] the target is Hsa-GABA α6β2γ2 (Homo sapiens, UniProt P18507+P47870+Q16445). From the text:
(§1) Complementary DNA (cDNA) encoding for the human GABAA proteins α1 (NM_001127645.2), α2 (NM_001377146.1), α3 (KJ620007.1), α4 (NM_000809.4), α5 (NM_000810.4), α6 (NM_000811.3), β2 (XM_054352312.1), β3 (M82919.1), γ2 (NM_000816.3) and δ (NM_000815.5) were ordered from Genewiz (www.genewiz.com; Leipzig, Germany); for each gene, GenBank accession numbers are provided in parentheses. When necessary, silent mutations were introduced to break NheI or XhoI internal restriction sites. The corresponding open reading frames (ORF) were cloned into the pT7-TS transcription vector (introducing X. laevis β-globin untranslated cDNA to the 5’ and 3’ ends of the gene), following a procedure described in detail in a previous publication. The same process was used to obtain cDNA encoding canine GABAA proteins α4 (XM_025435560.1), α6 (XM_022417729.1) and δ (XM_005620414.2). Gene α2 (XM_025435664.1), α3 (XM_549343.5), α5 (XM_545805.6) and β3 (XM_025437408.1) were obtained by PCR; GenBank reference accession numbers are provided in parentheses. RNA extraction, cDNA synthesis and PCR amplification were performed as described previously. Total RNA was extracted from a piece of dog brain (Beagle breed; Canis lupus familiaris) from which 1 µg of total RNA (DNase-treated) was reverse-transcribed to cDNA using a (dT)30 primer and SuperScript III Reverse Transcriptase (Invitrogen, Thermo Fisher Scientific, Waltham, MA, USA). Gene-specific primers (Additional file 1: Table S1) were designed using Primer 3 software (http://frodo.wi.mit.edu/). […] The cycling conditions were: 98 °C for 30 s; then 38 cycles of 98 °C for 10 s, 58 °C for 30 s and 72 °C for 90 s; followed by 72 °C for 5 min. The dog subunits α1 (XM_546261.5), β2 (XM_014113040.1) and γ2 (XM_546259.5) had been previously amplified and described in a study by Rufener et al..
(§2) Defoliculated X. laevis oocytes ordered from Ecocyte Bioscience (Dortmund, Germany) were microinjected with 15–25 nl of cRNA solution (5–50 ng/μl) per oocyte using an automated injector (Roboinject; Multi Channel Systems MCS GmbH, Reutlingen, Germany) and then incubated at 18 °C. All recordings were made 1–5 days post-cRNA injection and were performed at 18 ± 4 °C. Cells were superfused with OR2 medium (NaCl 88 mM, KCl 2.5 mM, HEPES 5 mM, CaCl2•2H2O 1.8 mM, MgCl2•7H2O 1.0 mM, pH 7.4). To ensure that γ2 subunits were integrated into the heteropentamers, we injected fivefold more γ2 than the other subunit cRNAs. Diazepam is a positive allosteric modulator of GABAR only if γ2 subunits are present. Therefore, we used this method to confirm the presence of human and dog GABAA receptor containing the γ2 subunit.
(§3) Voltage-clamp measurements were performed as described by Rufener et al.. Oocytes were impaled with two electrodes filled with 3 M KCl, and their membrane potentials were maintained at − 80 mV throughout the experiment. […] Recordings were performed using an automated process equipped with standard two-electrode voltage-clamp configuration (HiClamp system; Multi Channel Systems MCS GmbH). Data were filtered at 10 Hz, captured at 100 Hz and analyzed using proprietary data acquisition and analysis software in MATLAB (Mathworks Inc., Natick, MA, USA). Additional analyses were performed using Excel (Microsoft, Redmond, WA, USA). […] Graphing the maximum inward currents against the log of agonist concentration produces typical concentration-activation and concentration-inhibition curves, which can be accurately described using individual Hill equations.

The target in assay [2] is Hsa-GABA α2β2γ2 (Homo sapiens, UniProt P18507+P47869+P47870).
Source text: as §1, §2, §3

Assay [3] has as its target Hsa-GABA α1β2γ2 (Homo sapiens, UniProt P14867+P18507+P47870).
Source text: as §1, §2, §3

Assay [4] has as its target Hsa-GABA α5β2γ2 (Homo sapiens, UniProt P18507+P31644+P47870).
Source text: as §1, §2, §3

For assay [5], the target named is Hsa-GABA α3β2γ2 (Homo sapiens, UniProt P18507+P34903+P47870).
Source text: as §1, §2, §3

Chain of Hsa-GABA α1β2γ2 (P14867 28-456): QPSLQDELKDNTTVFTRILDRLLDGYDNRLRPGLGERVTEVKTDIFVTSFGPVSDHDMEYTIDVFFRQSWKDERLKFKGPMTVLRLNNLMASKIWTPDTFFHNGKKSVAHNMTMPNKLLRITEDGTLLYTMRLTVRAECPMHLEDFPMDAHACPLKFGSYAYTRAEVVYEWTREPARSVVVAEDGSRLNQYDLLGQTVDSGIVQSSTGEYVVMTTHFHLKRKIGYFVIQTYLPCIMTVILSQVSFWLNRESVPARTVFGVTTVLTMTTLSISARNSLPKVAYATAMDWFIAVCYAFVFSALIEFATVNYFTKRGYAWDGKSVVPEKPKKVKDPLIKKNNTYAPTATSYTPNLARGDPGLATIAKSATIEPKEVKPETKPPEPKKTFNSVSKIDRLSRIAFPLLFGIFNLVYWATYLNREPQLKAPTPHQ
Chain of Hsa-GABA α1β2γ2 (P47870 26-474 isoform P47870-1 limits assumed): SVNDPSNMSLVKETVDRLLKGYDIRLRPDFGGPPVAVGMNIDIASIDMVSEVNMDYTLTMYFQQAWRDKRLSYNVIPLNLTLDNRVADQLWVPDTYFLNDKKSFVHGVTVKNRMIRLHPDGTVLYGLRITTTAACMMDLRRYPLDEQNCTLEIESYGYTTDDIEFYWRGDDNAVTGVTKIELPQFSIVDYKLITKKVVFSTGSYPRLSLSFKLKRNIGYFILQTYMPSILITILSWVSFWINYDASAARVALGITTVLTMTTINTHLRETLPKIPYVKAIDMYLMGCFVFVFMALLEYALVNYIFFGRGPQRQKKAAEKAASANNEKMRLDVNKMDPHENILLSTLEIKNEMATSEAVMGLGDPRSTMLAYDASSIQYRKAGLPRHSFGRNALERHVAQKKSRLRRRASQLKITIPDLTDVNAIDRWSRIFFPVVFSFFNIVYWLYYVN
Chain of Hsa-GABA α1β2γ2 (P18507 40-467 isoform P18507-1 limits assumed): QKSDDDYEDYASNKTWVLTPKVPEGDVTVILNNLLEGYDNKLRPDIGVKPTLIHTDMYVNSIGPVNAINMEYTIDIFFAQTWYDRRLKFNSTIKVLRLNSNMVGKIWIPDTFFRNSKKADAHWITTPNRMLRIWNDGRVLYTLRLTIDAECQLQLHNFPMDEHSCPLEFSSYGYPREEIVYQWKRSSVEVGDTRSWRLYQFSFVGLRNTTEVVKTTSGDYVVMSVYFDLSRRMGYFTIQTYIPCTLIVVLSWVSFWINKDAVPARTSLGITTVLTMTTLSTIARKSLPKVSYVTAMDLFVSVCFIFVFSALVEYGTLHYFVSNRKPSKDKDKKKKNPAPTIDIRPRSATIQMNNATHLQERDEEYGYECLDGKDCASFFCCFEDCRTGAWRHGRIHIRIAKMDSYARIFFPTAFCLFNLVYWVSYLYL
Chain of Hsa-GABA α3β2γ2 (P34903 29-492): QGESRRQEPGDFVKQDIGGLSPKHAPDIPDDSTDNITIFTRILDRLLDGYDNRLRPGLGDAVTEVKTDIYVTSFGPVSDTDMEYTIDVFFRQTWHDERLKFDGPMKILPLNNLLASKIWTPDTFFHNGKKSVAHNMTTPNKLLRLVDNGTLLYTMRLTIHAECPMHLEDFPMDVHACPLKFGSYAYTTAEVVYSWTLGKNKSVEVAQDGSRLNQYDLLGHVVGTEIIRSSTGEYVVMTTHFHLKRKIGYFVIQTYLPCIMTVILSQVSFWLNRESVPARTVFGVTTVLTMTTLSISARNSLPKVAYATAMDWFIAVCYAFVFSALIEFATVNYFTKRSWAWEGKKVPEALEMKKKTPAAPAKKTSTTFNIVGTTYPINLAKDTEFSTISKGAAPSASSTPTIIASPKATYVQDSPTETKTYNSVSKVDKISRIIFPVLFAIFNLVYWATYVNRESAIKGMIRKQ
Chain of Hsa-GABA α3β2γ2 (P47870 26-474 isoform P47870-1 limits assumed): as the sequence (P47870 26-474 isoform P47870-1 limits assumed) above
Chain of Hsa-GABA α3β2γ2 (P18507 40-467 isoform P18507-1 limits assumed): as the sequence (P18507 40-467 isoform P18507-1 limits assumed) above
Chain of Hsa-GABA α5β2γ2 (P31644 32-462): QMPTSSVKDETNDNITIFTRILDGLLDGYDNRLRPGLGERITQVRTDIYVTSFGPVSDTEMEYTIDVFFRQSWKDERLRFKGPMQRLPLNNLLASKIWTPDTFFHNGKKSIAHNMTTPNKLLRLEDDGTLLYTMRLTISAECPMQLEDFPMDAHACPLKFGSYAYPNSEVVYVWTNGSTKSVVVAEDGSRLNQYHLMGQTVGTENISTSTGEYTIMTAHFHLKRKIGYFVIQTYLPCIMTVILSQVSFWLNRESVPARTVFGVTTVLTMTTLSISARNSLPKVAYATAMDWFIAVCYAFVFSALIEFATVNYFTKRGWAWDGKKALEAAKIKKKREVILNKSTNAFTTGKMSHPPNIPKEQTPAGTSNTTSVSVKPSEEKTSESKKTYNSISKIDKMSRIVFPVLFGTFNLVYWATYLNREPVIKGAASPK
Chain of Hsa-GABA α5β2γ2 (P47870 26-474 isoform P47870-1 limits assumed): as the sequence (P47870 26-474 isoform P47870-1 limits assumed) above
Chain of Hsa-GABA α5β2γ2 (P18507 40-467 isoform P18507-1 limits assumed): as the sequence (P18507 40-467 isoform P18507-1 limits assumed) above
Chain of Hsa-GABA α6β2γ2 (Q16445 20-453): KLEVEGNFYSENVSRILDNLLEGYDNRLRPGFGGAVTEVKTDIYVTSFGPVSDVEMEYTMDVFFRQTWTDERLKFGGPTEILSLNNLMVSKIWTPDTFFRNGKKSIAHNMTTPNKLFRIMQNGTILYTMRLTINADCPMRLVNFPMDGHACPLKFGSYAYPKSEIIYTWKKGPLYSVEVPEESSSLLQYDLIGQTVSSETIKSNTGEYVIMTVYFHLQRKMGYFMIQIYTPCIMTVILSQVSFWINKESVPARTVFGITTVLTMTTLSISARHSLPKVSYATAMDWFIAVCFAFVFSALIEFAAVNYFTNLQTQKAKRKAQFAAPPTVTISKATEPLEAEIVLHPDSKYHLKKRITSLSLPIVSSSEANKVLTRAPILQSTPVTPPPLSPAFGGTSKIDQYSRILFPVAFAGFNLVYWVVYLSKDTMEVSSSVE
Chain of Hsa-GABA α6β2γ2 (P47870 26-474 isoform P47870-1 limits assumed): as the sequence (P47870 26-474 isoform P47870-1 limits assumed) above
Chain of Hsa-GABA α6β2γ2 (P18507 40-467 isoform P18507-1 limits assumed): as the sequence (P18507 40-467 isoform P18507-1 limits assumed) above
Chain of Hsa-GABA α2β2γ2 (P47869 29-451): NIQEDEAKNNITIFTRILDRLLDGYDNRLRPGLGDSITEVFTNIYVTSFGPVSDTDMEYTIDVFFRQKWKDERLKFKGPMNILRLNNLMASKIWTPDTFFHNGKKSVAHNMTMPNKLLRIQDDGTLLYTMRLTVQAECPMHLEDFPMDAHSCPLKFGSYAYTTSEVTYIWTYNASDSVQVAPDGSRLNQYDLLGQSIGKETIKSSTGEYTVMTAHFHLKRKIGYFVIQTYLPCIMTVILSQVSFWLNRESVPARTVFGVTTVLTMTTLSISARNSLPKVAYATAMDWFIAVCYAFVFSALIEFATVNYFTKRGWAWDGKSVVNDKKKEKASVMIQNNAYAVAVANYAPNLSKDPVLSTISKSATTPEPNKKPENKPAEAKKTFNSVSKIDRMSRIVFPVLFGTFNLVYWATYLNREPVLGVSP
Chain of Hsa-GABA α2β2γ2 (P47870 26-474 isoform P47870-1 limits assumed): as the sequence (P47870 26-474 isoform P47870-1 limits assumed) above
Chain of Hsa-GABA α2β2γ2 (P18507 40-467 isoform P18507-1 limits assumed): as the sequence (P18507 40-467 isoform P18507-1 limits assumed) above

For `NCCCC(=O)O` [GABA, gamma-aminobutyric acid], the “nH (Hill coefficient)” value was 1.1 in assay [1]; 1.4 in assay [2]; 1.7 in assay [3]; 1.1 in assay [4]; 1.2 in assay [5].

For the origin of these results see PMC12144822 (Parasites & Vectors, 2025).
